From paper PMC5507300, “Antibacterial small molecules targeting the conserved TOPRIM domain of DNA gyrase” (PLoS ONE, 2017)
Entries after “also recorded” stand apart in the source; their conditions may differ.

Legend:
Type in all cases: biochemical
E. coli DNA gyrase = target: T1, E. coli DNA gyrase (Escherichia coli, UniProt P0AES6); assay: Agarose gel DNA gyrase supercoiling assay, E. coli
T1 construct: purchased New England Biolabs, Beverly, MA
Protocol: Conditions to measure the supercoiling of a relaxed, closed-circular plasmid substrate and cleavage complex stabilization in agarose gels were adapted from the literature and carried out as described below. Plasmid supercoiling reactions were assembled by combining 0.4 μL compound (in 100% DMSO), 12.5 μL H2O, 4 μL 5Xbuffer, 0.4 μL relaxed pUC19 DNA substrate (0.5 μg), […] dilute DNA gyrase (buffer, substrate, and enzyme from New England Biolabs, Beverly, MA). Alternatively the substrate pHOT-1 (TopoGEN, Buena Vista, CO) was used as noted (the substrate from New England Biolabs has been discontinued). P. aeruginosa DNA gyrase was supplied by Inspiralis, Norwich, UK. Reactions were allowed to proceed for 30 min. at 37°C after which 5 μL of stop buffer (5% sarkosyl, 25% glycerol, 1X Blue Juice [Invitrogen, Carlsbad, CA]) were added. Reactions were then extracted with 20 μL chloroform/isoamylOH (24:1) and a portion of the aqueous phase was loaded into a well in a 1% agarose/Tris-borate EDTA gel. Electrophoresis was conducted at 35 VDC until the loading dye migrated about 6.5 cm down the gel. DNA in the gel was then stained in 0.5 μg/mL ethidium bromide in water for 30 min. and rinsed (3X) in H2O. The gel was illuminated with UV light, photographed, and DNA quantitated with an Alpha Imager and accompanying software (ProteinSimple, San Jose, CA).

[1] = target: T2, E. coli DNA gyrase GyrB (F513L) (Escherichia coli, UniProt P0AES6, F513L); assay: Gel supercoiling assay, reconstituted GyrB (F513L) gyrase
T2 construct: His6 tag followed by TEV site (X1: […]) (N, cleaved yes); made in house; host or cells: E. coli BL21(DE3) RIL
Protocol: Conditions to measure the supercoiling of a relaxed, closed-circular plasmid substrate and cleavage complex stabilization in agarose gels were adapted from the literature and carried out as described below. Plasmid supercoiling reactions were assembled by combining 0.4 μL compound (in 100% DMSO), 12.5 μL H2O, 4 μL 5Xbuffer, 0.4 μL relaxed pUC19 DNA substrate (0.5 μg), […] dilute DNA gyrase (buffer, substrate, and enzyme from New England Biolabs, Beverly, MA). Alternatively the substrate pHOT-1 (TopoGEN, Buena Vista, CO) was used as noted (the substrate from New England Biolabs has been discontinued). P. aeruginosa DNA gyrase was supplied by Inspiralis, Norwich, UK. […] The gel was illuminated with UV light, photographed, and DNA quantitated with an Alpha Imager and accompanying software (ProteinSimple, San Jose, CA). […]
The E. coli gyrA and gyrB (wild-type and t1537c (F513L)) genes with a N-terminal His6 tag sequence followed by Tobacco Etch Virus (TEV) cleavage site ([…]) were cloned into pET28(+) vector (EMD Millipore). […] Fractions containing gyrase subunit protein (as monitored by sodium dodecyl sulfate polyacrylamide gel electrophoresis (SDS-PAGE)) were pooled and loaded onto a Q-Sepharose column (GE Healthcare, Princeton, NJ, USA) equilibrated in 20 mM Tris-HCl (pH = 7.9), 25mM NaCl, 10% glycerol, and 2 mM β-mercaptoethanol. […]

S. aureus DNA gyrase = target: T3, S. aureus DNA gyrase (Staphylococcus aureus, UniProt P0A0K8); assay: S. aureus DNA gyrase supercoiling reaction; conditions: maximum achievable concentration (200 μM), pHOT-1 supercoiling
T3 construct: purchased TopoGEN, Inc
T3 sequence (P0A0K8 whole entry): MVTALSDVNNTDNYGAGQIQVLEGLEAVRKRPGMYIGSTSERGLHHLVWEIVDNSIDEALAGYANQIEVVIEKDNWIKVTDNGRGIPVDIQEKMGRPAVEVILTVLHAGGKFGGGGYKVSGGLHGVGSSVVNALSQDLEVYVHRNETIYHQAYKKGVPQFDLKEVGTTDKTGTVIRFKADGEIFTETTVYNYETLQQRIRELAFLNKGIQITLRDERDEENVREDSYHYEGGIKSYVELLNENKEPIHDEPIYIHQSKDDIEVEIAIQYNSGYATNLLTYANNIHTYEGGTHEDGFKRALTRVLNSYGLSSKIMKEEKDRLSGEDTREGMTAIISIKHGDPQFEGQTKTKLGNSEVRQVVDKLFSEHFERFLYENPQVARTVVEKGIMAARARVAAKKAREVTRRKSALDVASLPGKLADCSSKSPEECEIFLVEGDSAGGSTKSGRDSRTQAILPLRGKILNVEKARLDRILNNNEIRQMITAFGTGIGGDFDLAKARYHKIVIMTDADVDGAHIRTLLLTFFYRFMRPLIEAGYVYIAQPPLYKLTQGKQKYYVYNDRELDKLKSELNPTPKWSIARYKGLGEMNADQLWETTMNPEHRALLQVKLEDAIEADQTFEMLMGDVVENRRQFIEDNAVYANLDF
T3 sequence (P20831 whole entry, further chain): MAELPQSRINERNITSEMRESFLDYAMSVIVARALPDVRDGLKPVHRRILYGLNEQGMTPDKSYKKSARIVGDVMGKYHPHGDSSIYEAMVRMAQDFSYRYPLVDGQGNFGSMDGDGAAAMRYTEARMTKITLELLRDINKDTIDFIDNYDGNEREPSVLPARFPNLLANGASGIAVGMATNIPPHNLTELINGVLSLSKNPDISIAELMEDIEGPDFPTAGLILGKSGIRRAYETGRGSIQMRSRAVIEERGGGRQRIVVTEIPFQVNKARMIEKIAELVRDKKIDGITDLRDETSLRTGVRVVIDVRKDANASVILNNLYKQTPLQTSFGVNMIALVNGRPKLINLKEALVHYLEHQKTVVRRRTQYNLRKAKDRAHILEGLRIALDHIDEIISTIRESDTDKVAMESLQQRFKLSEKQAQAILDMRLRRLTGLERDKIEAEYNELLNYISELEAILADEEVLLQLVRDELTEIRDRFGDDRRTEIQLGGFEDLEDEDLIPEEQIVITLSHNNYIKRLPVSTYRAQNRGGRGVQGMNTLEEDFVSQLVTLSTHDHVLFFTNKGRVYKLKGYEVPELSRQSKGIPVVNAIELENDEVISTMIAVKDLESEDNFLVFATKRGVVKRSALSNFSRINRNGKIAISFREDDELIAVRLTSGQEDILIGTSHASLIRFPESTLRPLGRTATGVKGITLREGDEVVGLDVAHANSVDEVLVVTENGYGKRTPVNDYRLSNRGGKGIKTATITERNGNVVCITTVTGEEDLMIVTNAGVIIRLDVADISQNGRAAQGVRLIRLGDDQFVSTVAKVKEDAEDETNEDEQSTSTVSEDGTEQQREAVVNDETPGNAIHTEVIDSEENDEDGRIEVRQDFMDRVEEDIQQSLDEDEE

Cn1ncc2cc(-c3cnnn3C3CCN(C(=O)Nc4cc(Cl)cc(Cl)c4)CC3)ccc21 [MRL-423]
IC50 (E. coli DNA gyrase): ~7.5 µM

Cn1ncc2cc(-c3nnnn3C3CCN(C(=O)Nc4ccc(Cl)c(Cl)c4)CC3)ccc21 [MRL-1082]
IC50 [1]: > 200 µM
activity against S. aureus DNA gyrase (S. aureus DNA gyrase): does not inhibit

COc1ccc(C)cc1NC(=O)N1CCC(n2nncc2-c2ccc3c(cnn3C)c2)CC1 [MRL-770]
inhibition of E. coli DNA gyrase (gel) (E. coli DNA gyrase; S1 Fig, pHOT-1 substrate): limited; also recorded: dose-dependent inhibition of enzyme activity
